Results as given in PubChem BioAssay (NCI).
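Results reflect a 48-hour exposure of cells in 96-well plates to compound at five concentrations. Abbreviation: GI50, concentration required for 50% inhibition of growth. At the TGI there is no net growth.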

What was measured:
Experiment in all cases: NCI anticancer screen, dose series, 48 h
SK-MEL-28 melanoma = tested on: SK-MEL-28 melanoma
SNB-19 CNS = tested on: SNB-19 CNS
CAKI-1 renal = tested on: CAKI-1 renal
HS 578T breast = tested on: HS 578T breast
RPMI-8226 leukemia = tested on: RPMI-8226 leukemia
NCI-H226 lung = tested on: NCI-H226 lung
ACHN renal = tested on: ACHN renal
OVCAR-8 ovarian = tested on: OVCAR-8 ovarian
MALME-3M melanoma = tested on: MALME-3M melanoma
U251 CNS = tested on: U251 CNS
HT29 colon = tested on: HT29 colon
HCC-2998 colon = tested on: HCC-2998 colon
SR leukemia = tested on: SR leukemia
NCI-H460 lung = tested on: NCI-H460 lung
EKVX NSCLC = tested on: EKVX NSCLC
BT-549 breast = tested on: BT-549 breast
HOP-62 NSCLC = tested on: HOP-62 NSCLC
SK-OV-3 ovarian = tested on: SK-OV-3 ovarian
DU-145 prostate = tested on: DU-145 prostate
OVCAR-4 ovarian = tested on: OVCAR-4 ovarian
RXF 393 renal = tested on: RXF 393 renal
HL-60(TB) leukemia = tested on: HL-60(TB) leukemia
786-0 renal = tested on: 786-0 renal
COLO 205 colon = tested on: COLO 205 colon
NCI/ADR-RES ovarian = tested on: NCI/ADR-RES ovarian
HCT-15 colon = tested on: HCT-15 colon
UACC-62 melanoma = tested on: UACC-62 melanoma
A549 NSCLC = tested on: A549 NSCLC
PC-3 prostate = tested on: PC-3 prostate
SF-268 CNS = tested on: SF-268 CNS
OVCAR-5 ovarian = tested on: OVCAR-5 ovarian
SW-620 colon = tested on: SW-620 colon
SN12C renal = tested on: SN12C renal
K-562 leukemia = tested on: K-562 leukemia
SK-MEL-5 melanoma = tested on: SK-MEL-5 melanoma
IGROV1 ovarian = tested on: IGROV1 ovarian
MDA-MB-435 = tested on: MDA-MB-435
LOX IMVI melanoma = tested on: LOX IMVI melanoma
UO-31 renal = tested on: UO-31 renal
MOLT-4 leukemia = tested on: MOLT-4 leukemia
M14 melanoma = tested on: M14 melanoma
SNB-75 CNS = tested on: SNB-75 CNS
HOP-92 NSCLC = tested on: HOP-92 NSCLC
NCI-H522 lung = tested on: NCI-H522 lung
SF-295 CNS = tested on: SF-295 CNS
UACC-257 melanoma = tested on: UACC-257 melanoma
KM12 colon = tested on: KM12 colon
T-47D breast = tested on: T-47D breast
MCF7 breast = tested on: MCF7 breast
CCRF-CEM leukemia = tested on: CCRF-CEM leukemia
A498 renal = tested on: A498 renal
SF-539 CNS = tested on: SF-539 CNS
TK-10 renal = tested on: TK-10 renal
SK-MEL-2 melanoma = tested on: SK-MEL-2 melanoma
NCI-H23 lung = tested on: NCI-H23 lung
MDA-MB-231 breast = tested on: MDA-MB-231 breast

Question: `CNC[C@@H](NC(=O)c1ccc(-c2nc([C@H]3CC[C@H](O)[C@@H](F)C3)cnc2N)cc1F)c1cc(F)cc(Br)c1` was tested. Which GI50 (SK-MEL-28 melanoma) did it give?
Answer: 17 µM

Question: And the TGI (SK-MEL-28 melanoma)?
Answer: 32.4 µM

Question: What about the GI50 (SNB-19 CNS) of the same compound?
Answer: 17.7 µM

Question: What about the TGI (SNB-19 CNS) of the same compound?
Answer: 36 µM

Question: And the GI50 (CAKI-1 renal)?
Answer: 11.6 µM

Question: What about the TGI (CAKI-1 renal) of the same compound?
Answer: 28.3 µM

Question: What about the GI50 (HS 578T breast) of the same compound?
Answer: 12.6 µM

Question: What about the TGI (HS 578T breast) of the same compound?
Answer: 39.4 µM

Question: What about the GI50 (RPMI-8226 leukemia) of the same compound?
Answer: 11.2 µM

Question: What about the TGI (RPMI-8226 leukemia) of the same compound?
Answer: 30.8 µM

Question: What about the GI50 (NCI-H226 lung) of the same compound?
Answer: 16.5 µM

Question: What about the TGI (NCI-H226 lung) of the same compound?
Answer: 35.3 µM

Question: And the GI50 (ACHN renal)?
Answer: 15 µM

Question: What about the TGI (ACHN renal) of the same compound?
Answer: 29.1 µM

Question: What about the GI50 (OVCAR-8 ovarian) of the same compound?
Answer: 17.3 µM

Question: And the TGI (OVCAR-8 ovarian)?
Answer: 35 µM

Question: And the GI50 (MALME-3M melanoma)?
Answer: 13.9 µM

Question: And the TGI (MALME-3M melanoma)?
Answer: 28.9 µM

Question: And the GI50 (U251 CNS)?
Answer: 14.6 µM

Question: And the TGI (U251 CNS)?
Answer: 32.4 µM

Question: And the GI50 (HT29 colon)?
Answer: 13.2 µM

Question: And the TGI (HT29 colon)?
Answer: 27 µM

Question: What about the GI50 (HCC-2998 colon) of the same compound?
Answer: 17.3 µM

Question: And the TGI (HCC-2998 colon)?
Answer: 31.8 µM

Question: And the GI50 (SR leukemia)?
Answer: 13.1 µM

Question: What about the TGI (SR leukemia) of the same compound?
Answer: 35.3 µM

Question: What about the GI50 (NCI-H460 lung) of the same compound?
Answer: 17.7 µM

Question: And the TGI (NCI-H460 lung)?
Answer: 33.5 µM

Question: And the GI50 (EKVX NSCLC)?
Answer: 16.1 µM

Question: What about the TGI (EKVX NSCLC) of the same compound?
Answer: 33.2 µM

Question: And the GI50 (BT-549 breast)?
Answer: 11.2 µM

Question: And the TGI (BT-549 breast)?
Answer: 25.3 µM

Question: What about the GI50 (HOP-62 NSCLC) of the same compound?
Answer: 14.3 µM

Question: And the TGI (HOP-62 NSCLC)?
Answer: 28.7 µM

Question: And the GI50 (SK-OV-3 ovarian)?
Answer: 17 µM

Question: And the TGI (SK-OV-3 ovarian)?
Answer: 31.3 µM

Question: What about the GI50 (DU-145 prostate) of the same compound?
Answer: 17.2 µM

Question: And the TGI (DU-145 prostate)?
Answer: 32.8 µM

Question: What about the GI50 (OVCAR-4 ovarian) of the same compound?
Answer: 18.1 µM

Question: And the TGI (OVCAR-4 ovarian)?
Answer: 50.2 µM

Question: What about the GI50 (RXF 393 renal) of the same compound?
Answer: 6.28 µM

Question: And the TGI (RXF 393 renal)?
Answer: 21.1 µM

Question: What about the GI50 (HL-60(TB) leukemia) of the same compound?
Answer: 13.6 µM

Question: And the TGI (HL-60(TB) leukemia)?
Answer: 34.2 µM

Question: What about the GI50 (786-0 renal) of the same compound?
Answer: 14 µM

Question: What about the TGI (786-0 renal) of the same compound?
Answer: 29.5 µM

Question: And the GI50 (COLO 205 colon)?
Answer: 13 µM

Question: And the TGI (COLO 205 colon)?
Answer: 27 µM

Question: What about the GI50 (NCI/ADR-RES ovarian) of the same compound?
Answer: 38.9 µM

Question: What about the TGI (NCI/ADR-RES ovarian) of the same compound?
Answer: > 100 µM

Question: What about the GI50 (HCT-15 colon) of the same compound?
Answer: 16.5 µM

Question: And the TGI (HCT-15 colon)?
Answer: 31.8 µM

Question: What about the GI50 (UACC-62 melanoma) of the same compound?
Answer: 17.4 µM

Question: What about the TGI (UACC-62 melanoma) of the same compound?
Answer: 32.8 µM

Question: What about the GI50 (A549 NSCLC) of the same compound?
Answer: 14.3 µM

Question: And the TGI (A549 NSCLC)?
Answer: 30.1 µM

Question: What about the GI50 (PC-3 prostate) of the same compound?
Answer: 12.3 µM

Question: And the TGI (PC-3 prostate)?
Answer: 25.5 µM

Question: What about the GI50 (SF-268 CNS) of the same compound?
Answer: 12.6 µM

Question: What about the TGI (SF-268 CNS) of the same compound?
Answer: 30.2 µM

Question: What about the GI50 (OVCAR-5 ovarian) of the same compound?
Answer: 16.4 µM

Question: And the TGI (OVCAR-5 ovarian)?
Answer: 40.2 µM

Question: And the GI50 (SW-620 colon)?
Answer: 18.4 µM

Question: What about the TGI (SW-620 colon) of the same compound?
Answer: 34.5 µM

Question: And the GI50 (SN12C renal)?
Answer: 16.5 µM

Question: What about the TGI (SN12C renal) of the same compound?
Answer: 32.9 µM

Question: What about the GI50 (K-562 leukemia) of the same compound?
Answer: 13.6 µM

Question: And the TGI (K-562 leukemia)?
Answer: 38.2 µM

Question: What about the GI50 (SK-MEL-5 melanoma) of the same compound?
Answer: 15.2 µM

Question: And the TGI (SK-MEL-5 melanoma)?
Answer: 29.3 µM

Question: And the GI50 (IGROV1 ovarian)?
Answer: 16 µM

Question: And the TGI (IGROV1 ovarian)?
Answer: 34 µM

Question: And the GI50 (MDA-MB-435)?
Answer: 16.1 µM

Question: What about the TGI (MDA-MB-435) of the same compound?
Answer: 30.9 µM

Question: And the GI50 (LOX IMVI melanoma)?
Answer: 15 µM

Question: What about the TGI (LOX IMVI melanoma) of the same compound?
Answer: 29.4 µM

Question: What about the GI50 (UO-31 renal) of the same compound?
Answer: 12.3 µM

Question: And the TGI (UO-31 renal)?
Answer: 26.4 µM

Question: What about the GI50 (MOLT-4 leukemia) of the same compound?
Answer: 15 µM

Question: And the TGI (MOLT-4 leukemia)?
Answer: 49.2 µM

Question: What about the GI50 (M14 melanoma) of the same compound?
Answer: 15.2 µM

Question: What about the TGI (M14 melanoma) of the same compound?
Answer: 31.1 µM

Question: What about the GI50 (SNB-75 CNS) of the same compound?
Answer: 4.09 µM

Question: And the TGI (SNB-75 CNS)?
Answer: 23.5 µM

Question: And the GI50 (HOP-92 NSCLC)?
Answer: 2570 nM

Question: What about the TGI (HOP-92 NSCLC) of the same compound?
Answer: 16.5 µM

Question: And the GI50 (NCI-H522 lung)?
Answer: 16.6 µM

Question: And the TGI (NCI-H522 lung)?
Answer: 32.4 µM

Question: And the GI50 (SF-295 CNS)?
Answer: 17.1 µM

Question: And the TGI (SF-295 CNS)?
Answer: 32.5 µM

Question: And the GI50 (UACC-257 melanoma)?
Answer: 15 µM

Question: What about the TGI (UACC-257 melanoma) of the same compound?
Answer: 30.5 µM

Question: What about the GI50 (KM12 colon) of the same compound?
Answer: 16 µM

Question: What about the TGI (KM12 colon) of the same compound?
Answer: 31.3 µM

Question: What about the GI50 (T-47D breast) of the same compound?
Answer: 18.3 µM

Question: And the TGI (T-47D breast)?
Answer: 36.2 µM

Question: What about the GI50 (MCF7 breast) of the same compound?
Answer: 18.3 µM

Question: And the TGI (MCF7 breast)?
Answer: 34.5 µM

Question: What about the GI50 (CCRF-CEM leukemia) of the same compound?
Answer: 16 µM

Question: And the TGI (CCRF-CEM leukemia)?
Answer: 39.1 µM

Question: And the GI50 (A498 renal)?
Answer: 13.1 µM

Question: And the TGI (A498 renal)?
Answer: 26.7 µM

Question: What about the GI50 (SF-539 CNS) of the same compound?
Answer: 15.2 µM

Question: And the TGI (SF-539 CNS)?
Answer: 29.1 µM

Question: What about the GI50 (TK-10 renal) of the same compound?
Answer: 12.2 µM

Question: What about the TGI (TK-10 renal) of the same compound?
Answer: 28.9 µM

Question: And the GI50 (SK-MEL-2 melanoma)?
Answer: 14 µM

Question: And the TGI (SK-MEL-2 melanoma)?
Answer: 28.7 µM

Question: What about the GI50 (NCI-H23 lung) of the same compound?
Answer: 17.8 µM

Question: And the TGI (NCI-H23 lung)?
Answer: 35.3 µM

Question: What about the GI50 (MDA-MB-231 breast) of the same compound?
Answer: 12.7 µM

Question: And the TGI (MDA-MB-231 breast)?
Answer: 27.3 µM
